# Patent EP4635565A1, “PRENYLATED TETRAHYDROQUINOLINES AND QUINOLINES WITH PPAR AGONIST ACTIVITY” (Fundación para la Investigación del Hospital Clínico de la …, priority 2024, dated 2025)
# Legend:
# [1] = molecular target: T1, hPPARβ/δ (Homo sapiens, UniProt Q03181); assay: PPAR transactivation assay, human chimeric PPAR/Gal4 reporter luciferase system in Cos-7 cells (PPARβ/δ); format: cell-based
# T1 sequence (Q03181 171-441): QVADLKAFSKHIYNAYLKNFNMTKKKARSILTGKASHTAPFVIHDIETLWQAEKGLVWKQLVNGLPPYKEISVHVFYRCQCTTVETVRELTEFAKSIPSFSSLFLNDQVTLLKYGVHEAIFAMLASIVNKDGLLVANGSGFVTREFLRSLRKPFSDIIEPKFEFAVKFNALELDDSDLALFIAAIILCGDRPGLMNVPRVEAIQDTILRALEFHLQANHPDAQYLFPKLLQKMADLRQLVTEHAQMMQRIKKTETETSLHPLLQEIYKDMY
# Description: Transfections were stopped after 16 h by adding DMEM/10% FCS. Cells were detached with trypsin, re-seeded in 96-well plates for 6 h in DMEM/10% FCS, and incubated for 24 h in DMEM/0.2% FCS with increasing concentrations of the test compounds or vehicle (DMSO, 0.1% final concentration). At the end of the experiment, cells were washed once with ice-cold PBS, lysed, and luciferase and β-galactosidase activities were measured. Luciferase activity was normalised to that of the internal control, β-galactosidase. All transfection experiments were performed at least five times.
# EC50 values against human PPARα/Gal4, PPARβ/δ/Gal4 and PPARγ/Gal4 receptors.
# [2] = system: TNFα-induced proinflammatory genes; assay: TNFα-induced pro-inflammatory gene expression by RT-qPCR in L929sA WT cells; format: cell-based, mouse; details: 10 µM for 1 h, then TNFa, total induction time 6 h
# Description: (§1) RNA was isolated using the RNeasy Purification Kit (Qiagen) according to the manufacturer's instructions. cDNA was synthesised using a PrimeScript kit (Takara). RT-qPCR was performed using Light Cycler 480 SYBR Green I Master Mix (Roche).
# PPARs play crucial roles in controlling inflammatory responses. NF-κB is a transcription factor that plays a pivotal role in the expression of multiple genes involved in the immune and inflammatory responses. To study the potential anti-inflammatory effects of the tetrahydroquinolines and quinolines of the invention, the NF-κB-dependent physiological human IL-8 promoter construct, p1481.IL8P-Luc+, which is stably integrated into L929sA cells, was tested. After transfection, cells were treated at 10 µM with 5a, 5b, 8a, or 8b prior to TNFa stimulation. […] Given the significant decrease in NF-κB-IL8P-Luc+ reporter gene activity observed after treatment with the 2- or 3-prenylated tetrahydroquinolines 5a and 5b and the 3-prenylated quinoline 8b, their potential anti-inflammatory effects at the transcriptional level for other inflammatory mediators was evaluated. To achieve this, the L929sA WT cells were treated with 5a, 5b and 8b at 10 µM for 1 h, followed by TNFa stimulation for a total induction time of 6 h. The expression of inflammatory genes was evaluated by RT-qPCR.
# [3] = system: Pdk4; assay: Pdk4 mRNA expression by RT-qPCR in L929sA WT cells; format: cell-based, mouse; details: 10 µM, 6 h
# Description: as §1
# (§2) Pyruvate Dehydrogenase Kinase 4 gene (Pdk4), a well-known target gene of PPARs, encodes a protein that regulates the phosphorylation and inactivation of the pyruvate dehydrogenase complex in response to physiological conditions. This response switches the energy source from glucose to fatty acids to maintain blood glucose levels to, thereby, increase lipid metabolism. Because it is a well-known target gene of PPARs, the effect of the 2- and 3-prenylated esters of tetrahydroquinolines and quinolines on a Pdk4 region reported to bind PPARα, was evaluated. The L929sA cells that were stably transfected with a PDK4-(PPRE)3-Luc+ reporter gene construct were used.
# [4] = system: THP-1 cells; assay: Cytotoxicity, Annexin V-FITC/PI dual staining by flow cytometry; format: cell-based, human; details: 30 and 100 µM, 24 h
# Description: The cytotoxicity of tetrahydroquinoline and quinoline esters 5a, 5b, 8a and 8b was evaluated at 30 and 100 µM by flow cytometry to assess cell survival using an Annexin V-FITC/PI dual staining assay. THP-1 cells (3 × 10^4 cells per well) were seeded in 24-well plates and allowed to grow overnight. The medium was then replaced and incubations with the different compounds or DMSO were performed during 24 h. Then, all cells were processed with the Annexin V-assay kit (ANXCFK7, Immunostep, Salamanca, Spain) according to the manufacturer's instruction. A Becton Dickinson LSR Fortessa cytometer (BD Biosciences, Franklin Lakes, NJ, USA) was used for samples, and cell analysis were performed using FACSDiva X20 software.
# The potential cytotoxic effects of the compounds of the invention 5a, 5b, 8a, and 8b on the human macrophage cell line THP-1 were evaluated by flow cytometry to assess cell survival using an Annexin V-FITC/PI dual staining assay. The THP-1 cells were treated with concentrations of 30 and 100 µM for 24 h.
# [5] = system: PDK4-(PPRE)3-Luc+; assay: Pdk4 transactivation assay (PDK4-(PPRE)3-Luc+ reporter in L929sA cells); format: cell-based, mouse; details: 10 µM, 6 h
# Description: Transfection of L929sA cells stably expressing reporter genes was performed using the calcium phosphate precipitation protocol according to standard procedures with a 10-fold excess of the plasmid of interest in a pGL3-basic vector containing Luc+, a modified firefly luciferase gene (Promega Biotec, Madison, Wis,) USA. USA). The Pdk4 reporter was created using an enhancer site linked to the Pdk4 promoter containing three PPRE extracted from mouse liver genomic DNA. The aforementioned plasmid construct was then introduced into a pMet7 backbone, which had previously been cloned with a luciferase gene site, using Xhol and Sacl cut sites. The resulting construct was subjected to geneticin (neomycin) antibiotic selection to isolate individual clones. A stable cell line, designated Pdk4-Luc+, was subsequently established in L929sA cells, which also contained a constitutively expressed galactosidase reporter and a neomycin selection cassette.
# as §2
compound,measurement,setting,value
"CCOC(=O)CC/C(C)=C/CCC1CCc2cc(OCc3ccccc3)ccc2N1C (stereo not shown) [Compound 5a, Ethyl (E)-7-(6-(benzyloxy)-1-methyl-1,2,3,4-tetrahydroquinolin-2-yl)-4-methylhept-4-enoate]",Emax at 10 µM,"[1]; COS-7, read-out: Efficacy (%) at 10 µmol/L PPARβ/δ",60%
same,EC50,"[1]; human PPARβ/δ/Gal4, Cos-7 cells, concentration range 0.001-10 µmol/L, NA: not active",2600 nM
same,transcription of TNFα-induced proinflammatory genes,[2],downregulated the transcription of TNFα-induced proinflammatory genes such as Cc/5 and II-6
same,expression of Pdk4 mRNA,[3],increased expression levels of Pdk4
same,cytotoxic effects (cell survival),[4],No cytotoxic effects were observed
same,transactivation of the PDK4-Luc+ indicator,"[5]; L929sA cells, compared to GW7647 at 1 µM",increased the transactivation of the PDK4-Luc+ indicator
same,maximal transactivation response compared with GW7647,[5]; GW7647 at 1 µM as positive control,outperformed the maximal activity of the prior art compound GW7647
